What is called inhibition is the drop in the measured response relative to a control, in per cent. A high value points to strong suppression.

The assay deals with Acetylcholinesterase (Homo sapiens) (UniProt P22303). Briefly: Inhibition of acetylcholinesterase at 100 uM by chemiluminescence method.
Chain of Acetylcholinesterase (Homo sapiens) (P22303 whole entry): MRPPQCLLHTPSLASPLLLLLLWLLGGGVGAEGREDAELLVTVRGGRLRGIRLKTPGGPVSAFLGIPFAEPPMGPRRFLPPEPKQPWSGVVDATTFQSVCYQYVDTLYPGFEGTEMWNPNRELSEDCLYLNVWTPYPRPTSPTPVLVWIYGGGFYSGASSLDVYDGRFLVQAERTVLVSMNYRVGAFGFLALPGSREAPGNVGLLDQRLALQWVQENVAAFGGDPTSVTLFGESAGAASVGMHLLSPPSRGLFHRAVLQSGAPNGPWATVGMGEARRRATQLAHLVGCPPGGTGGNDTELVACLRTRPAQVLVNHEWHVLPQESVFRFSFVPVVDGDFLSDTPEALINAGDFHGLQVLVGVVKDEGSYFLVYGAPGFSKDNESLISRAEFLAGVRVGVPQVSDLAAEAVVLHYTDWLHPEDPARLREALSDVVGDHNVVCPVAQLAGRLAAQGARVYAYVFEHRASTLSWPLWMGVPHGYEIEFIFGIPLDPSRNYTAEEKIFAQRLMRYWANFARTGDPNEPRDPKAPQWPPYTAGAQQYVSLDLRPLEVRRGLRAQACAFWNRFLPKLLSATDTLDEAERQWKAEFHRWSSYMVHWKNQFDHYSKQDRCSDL

With `CO[C@@H]1CC[C@](C)(O)C(C(=O)C2(C)NC(=O)CC[C@H](N)C(=O)O2)=C1O` (some centres not stated), the inhibition came out at 20%.
`C=C1CC[C@@H](OC)C(O)=C1C(=O)C1(C)NC(=O)CC[C@H](N)C(=O)O1` (some centres not stated) had an inhibition of 7%.

The values above are taken from ChEMBL document CHEMBL1156660, “Alkaloids from the mushroom Pseudobaeospora pyrifera, pyriferines A-C” (J Nat Prod, 2008).
